In the assay the target is Dipeptidyl peptidase 4 (Bos taurus, UniProt P81425).

A word on the IC50: it is the midpoint of a concentration-inhibition curve. Read a high IC50 as lower potency.

Dipeptidyl peptidase 4, sequence (P81425 whole entry): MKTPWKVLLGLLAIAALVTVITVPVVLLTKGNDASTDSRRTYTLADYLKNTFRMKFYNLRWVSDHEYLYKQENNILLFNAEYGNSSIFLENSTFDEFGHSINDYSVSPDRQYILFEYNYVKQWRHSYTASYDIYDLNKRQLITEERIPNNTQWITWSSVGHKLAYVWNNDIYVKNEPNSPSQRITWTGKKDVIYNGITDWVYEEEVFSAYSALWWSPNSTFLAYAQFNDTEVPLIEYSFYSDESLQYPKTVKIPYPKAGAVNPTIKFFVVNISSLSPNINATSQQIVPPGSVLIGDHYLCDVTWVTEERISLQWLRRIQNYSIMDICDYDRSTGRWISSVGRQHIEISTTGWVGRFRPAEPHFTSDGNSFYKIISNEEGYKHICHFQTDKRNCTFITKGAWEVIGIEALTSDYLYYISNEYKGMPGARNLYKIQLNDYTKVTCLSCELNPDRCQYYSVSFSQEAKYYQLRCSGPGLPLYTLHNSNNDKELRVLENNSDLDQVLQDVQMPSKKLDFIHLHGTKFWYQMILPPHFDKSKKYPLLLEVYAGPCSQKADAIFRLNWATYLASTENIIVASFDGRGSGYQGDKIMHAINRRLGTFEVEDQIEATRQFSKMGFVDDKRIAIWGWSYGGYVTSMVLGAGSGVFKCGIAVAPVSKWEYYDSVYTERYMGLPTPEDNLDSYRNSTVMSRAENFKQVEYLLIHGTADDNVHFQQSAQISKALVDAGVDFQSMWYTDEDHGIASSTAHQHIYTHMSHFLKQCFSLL
Description: Inhibition of bovine DPP4 by HTS assay

Compound `CC(C)=CCn1c(N2CCNCC2)nc2c1c(=O)[nH]c(=O)n2C` returned an IC50 of 0.676 µM.
